# Laboratory results from paper PMC11277489, “Novel Piperazine Derivatives of Vindoline as Anticancer Agents” (International Journal of Molecular Sciences, 2024).
# Like-named read-outs stand apart in the source and are kept apart here.
# Assays:
# SF-295 = assay: NCI60 one-dose screen (10 μM), CNS Cancer; type: cell-based; settings: Homo sapiens
# NCI-H522 = assay: NCI60 one-dose screen (10 μM), Non-small Cell Lung Cancer; type: cell-based; settings: Homo sapiens
# COLO 205 = assay: NCI60 one-dose screen (10 μM), Colon Cancer; type: cell-based, human; settings: Homo sapiens
# SK-MEL-28 = assay: NCI60 one-dose screen (10 μM), Melanoma; type: cell-based; settings: Homo sapiens
# LOX IMVI = assay: NCI60 one-dose screen (10 μM), Melanoma; type: cell-based, human; settings: Homo sapiens, LOX IMVI, read-out: Growth percent rate
# RXF 393 = assay: NCI60 one-dose screen (10 μM), Renal Cancer; type: cell-based, human; settings: Homo sapiens
# K-562 = assay: NCI60 one-dose screen (10 μM), Leukemia; type: cell-based; settings: Homo sapiens
# HS 578T = assay: NCI60 one-dose screen (10 μM), Breast Cancer; type: cell-based; settings: Homo sapiens, read-out: Growth percent rate
# A498 = assay: NCI60 one-dose screen (10 μM), Renal Cancer; type: cell-based; settings: Homo sapiens
# IGROV1 = assay: NCI60 one-dose screen (10 μM), Ovarian Cancer; type: cell-based; settings: Homo sapiens
# SK-MEL-2 = assay: NCI60 one-dose screen (10 μM), Melanoma; type: cell-based; settings: Homo sapiens
# SK-MEL-5 = assay: NCI60 one-dose screen (10 μM), Melanoma; type: cell-based, human; settings: Homo sapiens
# OVCAR-8 = assay: NCI60 one-dose screen (10 μM), Ovarian Cancer; type: cell-based; settings: Homo sapiens
# UACC-257 = assay: NCI60 one-dose screen (10 μM), Melanoma; type: cell-based; settings: Homo sapiens
# 786–0 = assay: NCI60 one-dose screen (10 μM), Renal Cancer; type: cell-based; settings: Homo sapiens
# SW-620 = assay: NCI60 one-dose screen (10 μM), Colon Cancer; type: cell-based; settings: Homo sapiens
# [1] = tested on: 60 human tumor cell lines (NCI60); assay: NCI60 one-dose screen (10 μM), whole panel; type: cell-based; settings: for activity at 10 µM: read-out: Growth percent rate, Mean
# HCT-15 = assay: NCI60 one-dose screen (10 μM), Colon Cancer; type: cell-based; settings: Homo sapiens
# HCT-116 = assay: NCI60 one-dose screen (10 μM), Colon Cancer; type: cell-based; settings: Homo sapiens
# M14 = assay: NCI60 one-dose screen (10 μM), Melanoma; type: cell-based; settings: Homo sapiens
# RPMI-8226 = assay: NCI60 one-dose screen (10 μM), Leukemia; type: cell-based; settings: Homo sapiens
# MCF7 = assay: NCI60 one-dose screen (10 μM), Breast Cancer; type: cell-based; settings: Homo sapiens
# OVCAR-3 = assay: NCI60 one-dose screen (10 μM), Ovarian Cancer; type: cell-based; settings: Homo sapiens
# A549/ATCC = assay: NCI60 one-dose screen (10 μM), Non-small Cell Lung Cancer; type: cell-based; settings: Homo sapiens
# SNB-75 = assay: NCI60 one-dose screen (10 μM), CNS Cancer; type: cell-based, human; settings: Homo sapiens
# SF-268 = assay: NCI60 one-dose screen (10 μM), CNS Cancer; type: cell-based; settings: Homo sapiens
# HL-60(TB) = assay: NCI60 one-dose screen (10 μM), Leukemia; type: cell-based; settings: Homo sapiens
# SN12C = assay: NCI60 one-dose screen (10 μM), Renal Cancer; type: cell-based; settings: Homo sapiens, read-out: Growth percent rate
# MALME-3M = assay: NCI60 one-dose screen (10 μM), Melanoma; type: cell-based; settings: Homo sapiens, read-out: Growth percent rate
# U251 = assay: NCI60 one-dose screen (10 μM), CNS Cancer; type: cell-based; settings: Homo sapiens
# SNB-19 = assay: NCI60 one-dose screen (10 μM), CNS Cancer; type: cell-based; settings: Homo sapiens
# CCRF-CEM = assay: NCI60 one-dose screen (10 μM), Leukemia; type: cell-based; settings: Homo sapiens, read-out: Growth percent rate
# NCI-H322M = assay: NCI60 one-dose screen (10 μM), Non-small Cell Lung Cancer; type: cell-based; settings: Homo sapiens, read-out: Growth percent rate
# MOLT-4 = assay: NCI60 one-dose screen (10 μM), Leukemia; type: cell-based, human; settings: Homo sapiens
# HT29 = assay: NCI60 one-dose screen (10 μM), Colon Cancer; type: cell-based; settings: Homo sapiens
# ACHN = assay: NCI60 one-dose screen (10 μM), Renal Cancer; type: cell-based; settings: Homo sapiens, read-out: Growth percent rate
# NCI-H460 = assay: NCI60 one-dose screen (10 μM), Non-small Cell Lung Cancer; type: cell-based; settings: Homo sapiens
# SF-539 = assay: NCI60 one-dose screen (10 μM), CNS Cancer; type: cell-based, human; settings: Homo sapiens
# KM12 = assay: NCI60 one-dose screen (10 μM), Colon Cancer; type: cell-based, human; settings: Homo sapiens
# DU-145 = assay: NCI60 one-dose screen (10 μM), Prostate Cancer; type: cell-based; settings: Homo sapiens
# TK-10 = assay: NCI60 one-dose screen (10 μM), Renal Cancer; type: cell-based; settings: Homo sapiens
# HOP-62 = assay: NCI60 one-dose screen (10 μM), Non-small Cell Lung Cancer; type: cell-based; settings: Homo sapiens
smiles,measurement,setting,value
CC[C@]12C=CCN3CC[C@@]4(c5ccc(OC)cc5N(C)[C@H]4[C@@](O)(C(=O)OC)[C@@H]1OC(=O)CCC(=O)N1CCN(C(=O)c4ccco4)CC1)[C@@H]32 [Compound 32],activity at 10 µM,"SF-295; SF-295, read-out: Growth percent rate",95.2%
same,activity at 10 µM,"NCI-H522; NCI-H522, read-out: Growth percent rate",81.4%
same,activity at 10 µM,"COLO 205; COLO 205, read-out: Growth percent rate",45.8%
same,activity at 10 µM,"SK-MEL-28; SK-MEL-28, read-out: Growth percent rate",67.6%
same,activity at 10 µM,LOX IMVI,97.8%
same,activity at 10 µM,"RXF 393; RXF 393, read-out: Growth percent rate",102%
same,activity at 10 µM,"K-562; K562, read-out: Growth percent rate",102%
same,activity at 10 µM,HS 578T; Hs-578T,103%
same,activity at 10 µM,"A498; A498, read-out: Growth percent rate",117%
same,activity at 10 µM,"IGROV1; IGROV-1, read-out: Growth percent rate",126%
same,activity at 10 µM,"SK-MEL-2; SK-MEL-2, read-out: Growth percent rate",96.8%
same,activity at 10 µM,"SK-MEL-5; SK-MEL-5, read-out: Growth percent rate",83.8%
same,activity at 10 µM,"OVCAR-8; OVCAR-8, read-out: Growth percent rate",100%
same,activity at 10 µM,"UACC-257; UACC-257, read-out: Growth percent rate",61.7%
same,activity at 10 µM,"786–0; 786-0, read-out: Growth percent rate",104%
same,activity at 10 µM,"SW-620; SW-620, read-out: Growth percent rate",117%
same,activity at 10 µM,[1]; Homo sapiens,97.2%
same,activity at 10 µM,"HCT-15; HCT-15, read-out: Growth percent rate",100%
same,activity at 10 µM,"HCT-116; HCT-116, read-out: Growth percent rate",119%
same,activity at 10 µM,"M14; M14, read-out: Growth percent rate",88.3%
same,activity at 10 µM,"RPMI-8226; RPMI-8226, read-out: Growth percent rate",99.4%
same,activity at 10 µM,"MCF7; MCF7, read-out: Growth percent rate",91.5%
same,activity at 10 µM,"OVCAR-3; OVCAR-3, read-out: Growth percent rate",99.8%
same,activity at 10 µM,"A549/ATCC; A549, read-out: Growth percent rate",95.2%
same,activity at 10 µM,"SNB-75; SNB-75, read-out: Growth percent rate",109%
same,activity at 10 µM,"SF-268; SF-268, read-out: Growth percent rate",92.2%
same,activity at 10 µM,"HL-60(TB); HL-60, read-out: Growth percent rate",90.9%
same,activity at 10 µM,SN12C,94.4%
same,activity at 10 µM,MALME-3M; Malme-3M,82%
same,activity at 10 µM,"U251; U-251, read-out: Growth percent rate",97.4%
same,activity at 10 µM,"SNB-19; SNB-19, read-out: Growth percent rate",91.2%
same,activity at 10 µM,CCRF-CEM,86.8%
same,activity at 10 µM,NCI-H322M,114%
same,activity at 10 µM,"MOLT-4; MOLT-4, read-out: Growth percent rate",85.8%
same,activity at 10 µM,"HT29; HT-29, read-out: Growth percent rate",102%
same,activity at 10 µM,ACHN,103%
same,activity at 10 µM,"NCI-H460; NCI-H460, read-out: Growth percent rate",107%
same,activity at 10 µM,"SF-539; SF-539, read-out: Growth percent rate",98.8%
same,activity at 10 µM,"KM12; KM12, read-out: Growth percent rate",100%
same,activity at 10 µM,"DU-145; DU-145, read-out: Growth percent rate",116%
same,activity at 10 µM,"TK-10; TK-10, read-out: Growth percent rate",103%
same,activity at 10 µM,"HOP-62; HOP-62, read-out: Growth percent rate",96.2%
CC[C@]12C=CCN3CC[C@@]4(c5ccc(OC)cc5N(C)[C@H]4[C@@](O)(C(=O)OC)[C@@H]1OC(=O)CCCN1CCN(Cc4ccc(C(F)(F)F)cc4)CC1)[C@@H]32 [Compound 23],activity at 10 µM,"SF-295; 10 μM, SF-295, CNS Cancer, read-out: Growth percent rate",-86.7%
same,activity at 10 µM,"NCI-H522; 10 μM, NCI-H522, Non-small Cell Lung Cancer, read-out: Growth percent rate",-59.3%
same,activity at 10 µM,"COLO 205; 10 μM, COLO 205, Colon Cancer, read-out: Growth percent rate",-82.9%
same,activity at 10 µM,"SK-MEL-28; 10 μM, SK-MEL-28, Melanoma, read-out: Growth percent rate",-94.8%
same,activity at 10 µM,"LOX IMVI; 10 μM, Melanoma",-54.4%
same,activity at 10 µM,"RXF 393; 10 μM, RXF 393, Renal Cancer, read-out: Growth percent rate",-85.3%
same,activity at 10 µM,"K-562; K562, 10 μM, K-562, Leukemia, read-out: Growth percent rate",-73.3%
same,activity at 10 µM,"HS 578T; 10 μM, HS 578T, Breast Cancer",-61.1%
same,activity at 10 µM,"A498; 10 μM, A498, Renal Cancer, read-out: Growth percent rate",-93.9%
same,activity at 10 µM,"IGROV1; IGROV-1, 10 μM, IGROV1, Ovarian Cancer, read-out: Growth percent rate",-71%
same,activity at 10 µM,"SK-MEL-2; 10 μM, SK-MEL-2, Melanoma, read-out: Growth percent rate",-72.6%
same,activity at 10 µM,"SK-MEL-5; 10 μM, SK-MEL-5, Melanoma, read-out: Growth percent rate",-98.5%
same,activity at 10 µM,"OVCAR-8; 10 μM, OVCAR-8, Ovarian Cancer, read-out: Growth percent rate",-42%
same,activity at 10 µM,"UACC-257; 10 μM, UACC-257, Melanoma, read-out: Growth percent rate",-82.2%
same,activity at 10 µM,"786–0; 10 μM, 786-0, Renal Cancer, read-out: Growth percent rate",-95.7%
same,activity at 10 µM,"SW-620; 10 μM, SW-620, Colon Cancer, read-out: Growth percent rate",-87.1%
same,growth rate,"[1]; 10 μM one-dose, on almost all tested cancer types and cell lines, negative = lethality",< −60%
same,activity at 10 µM,"[1]; 10 μM, mean over 60 human cancer cell lines",-71.8%
same,activity at 10 µM,"HCT-15; 10 μM, HCT-15, Colon Cancer, read-out: Growth percent rate",-68.1%
same,activity at 10 µM,"HCT-116; 10 μM, HCT-116, Colon Cancer, read-out: Growth percent rate",-89.3%
same,activity at 10 µM,"M14; 10 μM, M14, Melanoma, read-out: Growth percent rate",-88.9%
same,activity at 10 µM,"RPMI-8226; 10 μM, RPMI-8226, Leukemia, read-out: Growth percent rate",-58.3%
same,activity at 10 µM,"MCF7; 10 μM, MCF7, Breast Cancer, read-out: Growth percent rate",-74.3%
same,activity at 10 µM,"OVCAR-3; 10 μM, OVCAR-3, Ovarian Cancer, read-out: Growth percent rate",-68.4%
same,activity at 10 µM,"A549/ATCC; 10 μM, A549/ATCC, Non-small Cell Lung Cancer, read-out: Growth percent rate",-67.8%
same,activity at 10 µM,"SNB-75; 10 μM, SNB-75, CNS Cancer, read-out: Growth percent rate",-68.8%
same,activity at 10 µM,"SF-268; 10 μM, SF-268, CNS Cancer, read-out: Growth percent rate",-55.1%
same,activity at 10 µM,"HL-60(TB); 10 μM, HL-60(TB), Leukemia, read-out: Growth percent rate",-65.8%
same,activity at 10 µM,"SN12C; 10 μM, Renal Cancer",-4.35%
same,activity at 10 µM,"MALME-3M; 10 μM, MALME-3M, Melanoma",-95.2%
same,activity at 10 µM,"U251; U-251, 10 μM, U251, CNS Cancer, read-out: Growth percent rate",-78.1%
same,activity at 10 µM,"SNB-19; 10 μM, SNB-19, CNS Cancer, read-out: Growth percent rate",-89.1%
same,activity at 10 µM,"CCRF-CEM; 10 μM, Leukemia",-63.1%
same,activity at 10 µM,"NCI-H322M; 10 μM, Non-small Cell Lung Cancer",-48.2%
same,activity at 10 µM,"MOLT-4; 10 μM, MOLT-4, Leukemia, read-out: Growth percent rate",-68.5%
same,activity at 10 µM,"HT29; HT-29, 10 μM, HT29, Colon Cancer, read-out: Growth percent rate",-54.4%
same,activity at 10 µM,"ACHN; 10 μM, Renal Cancer",-78.1%
same,activity at 10 µM,"NCI-H460; 10 μM, NCI-H460, Non-small Cell Lung Cancer, read-out: Growth percent rate",-84.7%
same,activity at 10 µM,"SF-539; 10 μM, SF-539, CNS Cancer, read-out: Growth percent rate",-98.5%
same,activity at 10 µM,"KM12; 10 μM, KM12, Colon Cancer, read-out: Growth percent rate",-70.9%
same,activity at 10 µM,"DU-145; 10 μM, DU-145, Prostate Cancer, read-out: Growth percent rate",-64.9%
same,activity at 10 µM,"TK-10; 10 μM, TK-10, Renal Cancer, read-out: Growth percent rate",-81.7%
same,activity at 10 µM,"HOP-62; 10 μM, HOP-62, Non-small Cell Lung Cancer, read-out: Growth percent rate",-86.7%
